Data on 31 compounds can be found in US11685746B2, “Heteroaryl compounds for treating Huntington's disease” (PTC THERAPEUTICS, INC., priority 2018, dated 2023).

pIC50: −log10 of the molar value.

This experiment concerns Endogenous Huntingtin Protein. Put plainly: Endogenous Huntingtin Protein Assay (MSD plates, MW1 or MAB2166 capture antibody). The conditions noted are these: Table 1. It counts as cell-based. Here is the method: Endogenous Huntingtin Protein Assay
Meso Scale Discovery (MSD) 96-well or 384-well plates were coated overnight at 4° C. with MW1 (expanded polyglutamine) or MAB2166 monoclonal antibody (for capture) at a concentration of 1 μg/mL in PBS (30 μL per well). Plates were then washed three times with 300 μL wash buffer (0.05% Tween-20 in PBS) and blocked (100 μL blocking buffer; 5% BSA in PBS) for 4-5 hours at room temperature with rotational shaking and then washed three times with wash buffer.
Samples (25 μL) were transferred to the antibody-coated MSD plate and incubated overnight at 4° C. After removal of the lysates, the plate was washed three times with wash buffer, and 25 μL of #5656S (Cell signaling; rabbit monoclonal) secondary antibody (diluted to 0.25 μg/mL in 0.05% Tween-20 in blocking buffer) was added to each well and incubated with shaking for 1 Hour at room temperature. Following incubation with the secondary antibody, the wells were rinsed with wash buffer after which 25 μL of goat anti-rabbit SULFO TAG secondary detection antibody (required aspect of the MSD system) (diluted to 0.25 μg/mL in 0.05% Tween-20 in blocking buffer) was added to each well and incubated with shaking for 1 hour at room temperature. After rinsing three times with wash buffer, 150 μL of read buffer T with surfactant (MSD) were added to each empty well, and the plate was imaged on a SI 6000 imager (MSD) according to manufacturers' instructions provided for 96- or 384-well plates.
A word on the pIC50: it is −log10 of the IC50, conventionally taken in molar units. A high value points to a small IC50. In turn, `CN(c1nc2sc(-c3ccc(-c4cn[nH]c4)cc3O)nc2s1)C1CCNCC1` [Compound 14, 2-{5-[methyl(piperidin-4-yl)amino][1,3]thiazolo[5,4-d][1,3]thiazol-2-yl}-5-(1H-pyrazol-4-yl)phenol] showed a pIC50 of at least 7.00. To `Cn1cc2cc(-c3nc4sc(C5CCNCC5)nc4s3)cc(C#N)c2n1` [Compound 15, 2-methyl-5-[5-(piperidin-4-yl)[1,3]thiazolo[5,4-d][1,3]thiazol-2-yl]-2H-indazole-7-carbonitrile] belongs at least 7.00.

`Cc1cc(-c2nc3sc(C4CCNCC4)nc3s2)cc2cn(C)nc12` [Compound 16, 2,7-dimethyl-5-[5-(piperidin-4-yl)[1,3]thiazolo[5,4-d][1,3]thiazol-2-yl]-2H-indazole] showed a pIC50 of at least 7.00.

`CN(c1nn2cc(-c3ccc(-c4cn[nH]c4)cc3O)nc2s1)C1CC(C)(C)NC(C)(C)C1` [Compound 17, 2-{2-[methyl(2,2,6,6-tetramethylpiperidin-4-yl)amino]imidazo[2,1-b][1,3,4]thiadiazol-6-yl}-5-(1H-pyrazol-4-yl)phenol] had a pIC50 of 6.00 to 6.30. For `CN(c1nn2cc(-c3ccc(-c4cn[nH]c4)cc3O)nc2s1)C1CC2CCC(C1)N2` (stereo not drawn) [Compound 18, 2-{2-[(3-exo)-8-azabicyclo[3.2.1]oct-3-yl(methyl)amino]imidazo[2,1-b][1,3,4]thiadiazol-6-yl}-5-(1H-pyrazol-4-yl)phenol] the value was 6.30 to 7.00; for `CN1C2CCC1CC(Nc1nn3cc(-c4ccc(-c5cn[nH]c5)cc4O)nc3s1)C2` (stereo not drawn) [Compound 19, 2-(2-{[(3-exo)-8-methyl-8-azabicyclo[3.2.1]oct-3-yl]amino]imidazo[2,1-b][1,3,4]thiadiazol-6-yl)-5-(1H-pyrazol-4-yl)phenol], 6.30 to 7.00; for `CN(c1nc2sc(-c3cc(F)c(-c4cn[nH]c4)cc3F)nc2s1)C1CCNCC1` [Compound 20, 5-[2,5-difluoro-4-(1H-pyrazol-4-yl)phenyl]-N-methyl-N-(piperidin-4-yl)[1,3]thiazolo[5,4-d][1,3]thiazol-2-amine], 6.30 to 7.00. Regarding `CN(c1nc2sc(-c3cc(F)c(-c4cn[nH]c4)c(F)c3)nc2s1)C1CCNCC1` [Compound 21, 5-[3,5-difluoro-4-(1H-pyrazol-4-yl)phenyl]-N-methyl-N-(piperidin-4-yl)[1,3]thiazolo[5,4-d][1,3]thiazol-2-amine], the pIC50 is 5.52 to 6.00. In the case of `Oc1cc(-c2cn[nH]c2)ccc1-c1nc2sc(NC3CCNCC3)nc2s1` [Compound 22, 2-[5-(piperidin-4-ylamino)[1,3]thiazolo[5,4-d][1,3]thiazol-2-yl]-5-(1H-pyrazol-4-yl)phenol], the pIC50 is at least 7.00. To `CN1CCC(Nc2nc3sc(-c4ccc(-c5cn[nH]c5)cc4O)nc3s2)CC1` [Compound 23, 2-{5-[(1-methylpiperidin-4-yl)amino][1,3]thiazolo[5,4-d][1,3]thiazol-2-yl}-5-(1H-pyrazol-4-yl)phenol] belongs at least 7.00; to `CN1CCC(N(C)c2nc3sc(-c4ccc(-c5cn[nH]c5)cc4O)nc3s2)CC1` [Compound 24, 2-{5-[methyl(1-methylpiperidin-4-yl)amino][1,3]thiazolo[5,4-d][1,3]thiazol-2-yl}-5-(1H-pyrazol-4-yl)phenol], at least 7.00; to `Cn1cc2cc(-c3nc4sc(C5CCNCC5)nc4s3)ccc2n1` [Compound 25, 2-methyl-5-[5-(piperidin-4-yl)[1,3]thiazolo[5,4-d][1,3]thiazol-2-yl]-2H-indazole], 6.30 to 7.00.

For the compound `COc1cc(-c2nc3sc(C4CCNCC4)nc3s2)cc2cn(C)nc12` [Compound 26, 7-methoxy-2-methyl-5-[5-(piperidin-4-yl)[1,3]thiazolo[5,4-d][1,3]thiazol-2-yl]-2H-indazole], the pIC50 is at least 7.00.

As for `Cn1cc2cc(-c3nn4cc(C5CCNCC5)nc4s3)cc(C#N)c2n1` [Compound 27, 2-methyl-5-[6-(piperidin-4-yl)imidazo[2,1-b][1,3,4]thiadiazol-2-yl]-2H-indazole-7-carbonitrile], the pIC50 was at least 7.00.

Compound `Cn1cc2cc(-c3nn4cc(C5CCNCC5)nc4s3)cc(F)c2n1` [Compound 28, 7-fluoro-2-methyl-5-[6-(piperidin-4-yl)imidazo[2,1-b][1,3,4]thiadiazol-2-yl]-2H-indazole] showed a pIC50 of at least 7.00. For `Cc1cn2cc(-c3nn4cc(C5CCNCC5)nc4s3)cc(C#N)c2n1` [Compound 29, 2-methyl-6-[6-(piperidin-4-yl)imidazo[2,1-b][1,3,4]thiadiazol-2-yl]imidazo[1,2-a]pyridine-8-carbonitrile] the value was 6.30 to 7.00; for `Cc1cn2cc(-c3nn4cc(C5CCNCC5)nc4s3)cc(F)c2n1` [Compound 30, 8-fluoro-2-methyl-6-[6-(piperidin-4-yl)imidazo[2,1-b][1,3,4]thiadiazol-2-yl]imidazo[1,2-a]pyridine], 6.30 to 7.00.

For the compound `CN1CCC(N(C)c2nn3cc(-c4cc(C#N)c5nn(C)cc5c4)nc3s2)CC1` [Compound 31, 2-methyl-5-{2-[methyl(1-methylpiperidin-4-yl)amino]imidazo[2,1-b][1,3,4]thiadiazol-6-yl}-2H-indazole-7-carbonitrile], the pIC50 was 5.05 to 5.52. To `Cn1cc2cc(-c3cn4nc(C5CCNCC5)sc4n3)cc(C#N)c2n1` [Compound 32, 2-methyl-5-[2-(piperidin-4-yl)imidazo[2,1-b][1,3,4]thiadiazol-6-yl]-2H-indazole-7-carbonitrile] belongs 6.30 to 7.00.

The compound `Cn1cc2cc(-c3cn4nc(C5=CC6CCC(C5)N6)sc4n3)cc(C#N)c2n1` (stereo not shown) [Compound 33, 5-[2-(8-azabicyclo[3.2.1]oct-2-en-3-yl)imidazo[2,1-b][1,3,4]thiadiazol-6-yl]-2-methyl-2H-indazole-7-carbonitrile] gave a pIC50 of 5.52 to 6.00.

As to `C[C@@H]1C[C@@H](N(C)c2nc3sc(-c4ccc(-c5cn[nH]c5)cc4O)nc3s2)C[C@H](C)N1` [Compound 34, 2-(5-{[(2R,4s,6S)-2,6-dimethylpiperidin-4-yl](methyl)amino}[1,3]thiazolo[5,4-d][1,3]thiazol-2-yl)-5-(1H-pyrazol-4-yl)phenol], the pIC50 was at least 7.00. To `CN(c1nc2sc(-c3ccc(-c4ccnc(O)c4)cc3O)nc2s1)C1CCNCC1` [Compound 35, 4-(3-hydroxy-4-{5-[methyl(piperidin-4-yl)amino][1,3]thiazolo[5,4-d][1,3]thiazol-2-yl}phenyl)pyridin-2-ol] belongs 5.05 to 5.52; to `CN(c1nc2sc(-c3ccc(-c4ccn(C)c(=O)c4)cc3O)nc2s1)C1CCNCC1` [Compound 36, 4-(3-hydroxy-4-{5-[methyl(piperidin-4-yl)amino][1,3]thiazolo[5,4-d][1,3]thiazol-2-yl}phenyl)-1-methylpyridin-2(1H)-one], 6.30 to 7.00. For `CC1(C)CC(Oc2nc3sc(-c4ccc(-c5cn[nH]c5)cc4O)nc3s2)CC(C)(C)N1` [Compound 37, 5-(1H-pyrazol-4-yl)-2-{5-[(2,2,6,6-tetramethylpiperidin-4-yl)oxy][1,3]thiazolo[5,4-d][1,3]thiazol-2-yl}phenol] the value was at least 7.00. With `Cn1ccc(-c2ccc(-c3nc4sc(OC5CC(C)(C)NC(C)(C)C5)nc4s3)c(O)c2)cc1=O` [Compound 38, 4-(3-hydroxy-4-{5-[(2,2,6,6-tetramethylpiperidin-4-yl)oxy][1,3]thiazolo[5,4-d][1,3]thiazol-2-yl}phenyl)-1-methylpyridin-2(1H)-one], the pIC50 was 6.30 to 7.00. For `[2H]C([2H])([2H])n1cc(-c2ccc(-c3nc4sc(N(C)C5CCNCC5)nc4s3)c(O)c2)cn1` [Compound 39, 2-{5-[methyl(piperidin-4-yl)amino][1,3]thiazolo[5,4-d][1,3]thiazol-2-yl}-5-[1-(^2H3)methyl-1H-pyrazol-4-yl]phenol] the value was at least 7.00. For `CN(c1nc2sc(-c3ccc(-c4cnn(C)c4)cc3O)nc2s1)C1CCNCC1` [Compound 40, 2-{5-[methyl(piperidin-4-yl)amino][1,3]thiazolo[5,4-d][1,3]thiazol-2-yl}-5-(1-methyl-1H-pyrazol-4-yl)phenol] the value was at least 7.00; for `Cc1cn2cc(-c3nc4sc(C5=CCNCC5)nc4s3)nc2c(C)n1` [Compound 41, 6,8-dimethyl-2-[5-(1,2,3,6-tetrahydropyridin-4-yl)[1,3]thiazolo[5,4-d][1,3]thiazol-2-yl]imidazo[1,2-a]pyrazine], 6.30 to 7.00; for `CN(c1nc2sc(-c3ncc(-c4cn[nH]c4)cc3O)nc2s1)C1CC(C)(C)NC(C)(C)C1` [Compound 42, 2-{5-[methyl(2,2,6,6-tetramethylpiperidin-4-yl)amino][1,3]thiazolo[5,4-d][1,3]thiazol-2-yl}-5-(1H-pyrazol-4-yl)pyridin-3-ol], at least 7.00. `CN(c1nc2sc(-c3ccc(-c4cn[nH]c4F)cc3O)nc2s1)C1CC(C)(C)NC(C)(C)C1` [Compound 43, 5-(5-fluoro-1H-pyrazol-4-yl)-2-{5-[methyl(2,2,6,6-tetramethylpiperidin-4-yl)amino][1,3]thiazolo[5,4-d][1,3]thiazol-2-yl}phenol] showed a pIC50 of at least 7.00. To `Cc1cn2cc(-c3nc4sc(C5CCNCC5)nc4s3)nc2c(C)n1` [Compound 44, 6,8-dimethyl-2-[5-(piperidin-4-yl)[1,3]thiazolo[5,4-d][1,3]thiazol-2-yl]imidazo[1,2-a]pyrazine] belongs 5.52 to 6.00.
